N#CC(c1ccc(Cl)cc1)c1c(Cl)cc(-n2ncc(=O)[nH]c2=O)cc1Cl (stereo not given)
solubility (mole fraction)
Details	in DMF	in acetone	in acetonitrile	in ethanol	in ethyl acetate	in isopropanol	in methanol	in n-butanol	in n-propanol	in toluene
283.15 K	0.0254	0.012	0.00825	0.00168	0.0052	0.000798	0.00233	0.000481	0.00118	0.000263
288.15 K	0.028	0.014	0.00972	0.00204	0.00634	0.00102	0.0027	0.000639	0.00146	0.000371
293.15 K	0.0309	0.0162	0.0115	0.00245	0.0077	0.00129	0.00316	0.000851	0.00179	0.00052
298.15 K	0.0339	0.0186	0.0135	0.00293	0.00924	0.00163	0.00369	0.0011	0.00221	0.000692
303.15 K	0.0372	0.0215	0.0157	0.00347	0.0111	0.00204	0.00426	0.00142	0.00268	0.000923
308.15 K	0.0407	0.0247	0.0183	0.00407	0.0132	0.00251	0.00494	0.00181	0.00321	0.00123
313.15 K	0.0444	0.0281	0.0211	0.00476	0.0157	0.00308	0.00566	0.00229	0.00383	0.00162
318.15 K	0.0484	0.032	0.0244	0.00555	0.0185	0.00374	0.00646	0.00288	0.0046	0.00211
323.15 K	0.0527	0.0361	0.0279	0.00641	0.0217	0.00455	0.00737	0.0036	0.00543	0.0027
